Here are results for 5 compounds from ChEMBL document CHEMBL4387728, “Synthetic glycopeptides reveal specific binding pattern and conformational change at O-mannosylated position of α-dystroglycan by POMGnT1 catalyzed GlcNAc modification” (Bioorg Med Chem, 2019).

In one assay the test system is Datura stramonium. Briefly: Binding affinity to biotin-labeled Datura stramonium agglutinin in pH 7.4 Tris buffer by fluorescence microarray method.
For the next assay, the system named is Canavalia ensiformis. Kind of assay: Binding affinity to biotin-labeled Canavalia ensiformis agglutinin in pH 7.4 Tris buffer by fluorescence microarray method.
In assay [1] the target is Laminin subunit alpha-1 (Homo sapiens) (UniProt P25391). Briefly: Binding affinity to biotin-labeled human recombinant laminin-1 at 10 ug/ml in pH 7.4 Tris buffer by fluorescence microarray method.
Laminin subunit alpha-1 (Homo sapiens), sequence (P25391 whole entry): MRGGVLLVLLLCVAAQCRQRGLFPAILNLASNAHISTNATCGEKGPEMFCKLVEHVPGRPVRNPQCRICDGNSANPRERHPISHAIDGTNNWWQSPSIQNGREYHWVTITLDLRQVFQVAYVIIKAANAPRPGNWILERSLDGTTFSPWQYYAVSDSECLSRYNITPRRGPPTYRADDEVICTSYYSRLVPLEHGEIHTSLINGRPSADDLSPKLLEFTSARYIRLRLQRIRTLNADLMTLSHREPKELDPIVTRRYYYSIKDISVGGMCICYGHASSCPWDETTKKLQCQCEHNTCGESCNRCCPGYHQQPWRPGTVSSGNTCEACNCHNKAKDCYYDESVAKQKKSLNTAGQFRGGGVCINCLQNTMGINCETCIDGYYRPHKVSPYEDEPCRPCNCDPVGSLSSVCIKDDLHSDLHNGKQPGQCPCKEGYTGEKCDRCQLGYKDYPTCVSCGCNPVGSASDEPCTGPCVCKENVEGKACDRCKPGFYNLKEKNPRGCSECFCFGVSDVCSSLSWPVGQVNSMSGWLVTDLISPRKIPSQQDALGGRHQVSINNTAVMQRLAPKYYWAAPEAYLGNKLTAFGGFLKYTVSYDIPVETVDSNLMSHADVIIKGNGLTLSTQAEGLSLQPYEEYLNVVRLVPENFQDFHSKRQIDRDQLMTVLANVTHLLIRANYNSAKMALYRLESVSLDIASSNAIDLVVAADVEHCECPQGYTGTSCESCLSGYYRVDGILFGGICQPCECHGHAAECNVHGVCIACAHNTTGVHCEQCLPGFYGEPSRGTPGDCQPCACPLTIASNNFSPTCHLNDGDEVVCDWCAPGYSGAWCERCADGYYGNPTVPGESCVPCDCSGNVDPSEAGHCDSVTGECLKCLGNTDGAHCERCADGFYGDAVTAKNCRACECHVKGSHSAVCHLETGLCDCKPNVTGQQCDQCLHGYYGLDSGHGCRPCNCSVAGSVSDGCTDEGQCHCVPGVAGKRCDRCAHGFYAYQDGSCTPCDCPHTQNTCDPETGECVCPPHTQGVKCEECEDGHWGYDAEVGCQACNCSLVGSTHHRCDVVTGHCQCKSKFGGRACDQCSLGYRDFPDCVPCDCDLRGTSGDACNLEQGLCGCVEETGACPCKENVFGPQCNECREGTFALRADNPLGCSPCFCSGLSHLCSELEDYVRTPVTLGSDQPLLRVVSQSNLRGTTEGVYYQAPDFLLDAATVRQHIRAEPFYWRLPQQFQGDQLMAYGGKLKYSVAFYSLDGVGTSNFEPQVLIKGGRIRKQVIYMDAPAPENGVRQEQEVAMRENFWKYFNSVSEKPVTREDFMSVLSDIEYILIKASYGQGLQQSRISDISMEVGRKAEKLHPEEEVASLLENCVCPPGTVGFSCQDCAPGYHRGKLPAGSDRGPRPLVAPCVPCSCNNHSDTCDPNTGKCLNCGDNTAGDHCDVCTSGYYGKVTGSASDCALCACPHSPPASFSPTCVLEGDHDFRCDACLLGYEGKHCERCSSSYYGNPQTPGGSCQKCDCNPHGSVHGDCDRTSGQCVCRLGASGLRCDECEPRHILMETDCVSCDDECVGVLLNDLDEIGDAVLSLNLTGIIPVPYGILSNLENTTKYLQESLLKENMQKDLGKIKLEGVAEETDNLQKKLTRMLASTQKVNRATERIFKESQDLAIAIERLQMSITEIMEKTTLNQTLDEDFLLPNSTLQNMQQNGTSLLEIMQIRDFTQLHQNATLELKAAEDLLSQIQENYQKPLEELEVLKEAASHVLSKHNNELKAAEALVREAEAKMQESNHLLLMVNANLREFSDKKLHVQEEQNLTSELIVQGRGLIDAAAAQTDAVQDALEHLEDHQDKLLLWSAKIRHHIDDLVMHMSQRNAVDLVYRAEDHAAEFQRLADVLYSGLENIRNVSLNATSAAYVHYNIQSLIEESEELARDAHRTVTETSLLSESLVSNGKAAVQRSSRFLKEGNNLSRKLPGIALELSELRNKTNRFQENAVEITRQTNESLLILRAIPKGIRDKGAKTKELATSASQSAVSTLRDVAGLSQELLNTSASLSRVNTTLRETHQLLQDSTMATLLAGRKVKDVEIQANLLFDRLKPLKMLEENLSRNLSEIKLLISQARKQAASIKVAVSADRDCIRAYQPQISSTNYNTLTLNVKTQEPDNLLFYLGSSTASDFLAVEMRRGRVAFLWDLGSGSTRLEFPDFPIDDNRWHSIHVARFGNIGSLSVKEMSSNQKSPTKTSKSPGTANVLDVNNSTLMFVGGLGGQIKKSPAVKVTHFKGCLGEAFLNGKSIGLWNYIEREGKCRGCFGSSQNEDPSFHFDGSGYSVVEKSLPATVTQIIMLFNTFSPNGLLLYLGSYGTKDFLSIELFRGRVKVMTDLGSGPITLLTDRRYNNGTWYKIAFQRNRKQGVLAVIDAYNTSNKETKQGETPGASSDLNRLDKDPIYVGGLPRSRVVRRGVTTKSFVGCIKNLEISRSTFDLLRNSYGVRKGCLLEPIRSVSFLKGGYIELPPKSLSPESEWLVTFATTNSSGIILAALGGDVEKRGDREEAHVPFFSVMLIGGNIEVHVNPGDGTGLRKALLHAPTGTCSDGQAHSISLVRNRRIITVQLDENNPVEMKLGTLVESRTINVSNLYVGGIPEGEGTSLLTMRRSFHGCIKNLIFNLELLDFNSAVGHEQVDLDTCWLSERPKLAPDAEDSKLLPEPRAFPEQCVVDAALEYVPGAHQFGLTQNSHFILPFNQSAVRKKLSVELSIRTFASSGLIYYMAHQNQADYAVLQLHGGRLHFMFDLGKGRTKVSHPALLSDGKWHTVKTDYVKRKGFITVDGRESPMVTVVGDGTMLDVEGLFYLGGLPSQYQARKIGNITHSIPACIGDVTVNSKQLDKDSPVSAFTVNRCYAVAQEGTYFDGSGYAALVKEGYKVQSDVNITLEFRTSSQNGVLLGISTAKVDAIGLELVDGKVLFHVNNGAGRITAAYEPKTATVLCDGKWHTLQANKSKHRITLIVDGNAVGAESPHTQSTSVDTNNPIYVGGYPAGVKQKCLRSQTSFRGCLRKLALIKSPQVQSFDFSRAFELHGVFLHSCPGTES
Assay [2] has the same target. Briefly: Binding affinity to biotin-labeled human recombinant laminin-1 at 10 ug/ml in pH 5.6 MES buffer by fluorescence microarray method.
Another assay has as its system Maackia amurensis. Briefly: Binding affinity to biotin-labeled Maackia amurensis agglutinin in pH 7.4 Tris buffer by fluorescence microarray method.
Assay [3] deals with Lactotransferrin (Homo sapiens) (UniProt P02788). Kind of assay: Binding affinity to biotin-labeled lactoferrin (unknown origin) at 10 ug/ml in pH 7.4 Tris buffer by fluorescence microarray method.
Lactotransferrin (Homo sapiens), sequence (P02788 whole entry): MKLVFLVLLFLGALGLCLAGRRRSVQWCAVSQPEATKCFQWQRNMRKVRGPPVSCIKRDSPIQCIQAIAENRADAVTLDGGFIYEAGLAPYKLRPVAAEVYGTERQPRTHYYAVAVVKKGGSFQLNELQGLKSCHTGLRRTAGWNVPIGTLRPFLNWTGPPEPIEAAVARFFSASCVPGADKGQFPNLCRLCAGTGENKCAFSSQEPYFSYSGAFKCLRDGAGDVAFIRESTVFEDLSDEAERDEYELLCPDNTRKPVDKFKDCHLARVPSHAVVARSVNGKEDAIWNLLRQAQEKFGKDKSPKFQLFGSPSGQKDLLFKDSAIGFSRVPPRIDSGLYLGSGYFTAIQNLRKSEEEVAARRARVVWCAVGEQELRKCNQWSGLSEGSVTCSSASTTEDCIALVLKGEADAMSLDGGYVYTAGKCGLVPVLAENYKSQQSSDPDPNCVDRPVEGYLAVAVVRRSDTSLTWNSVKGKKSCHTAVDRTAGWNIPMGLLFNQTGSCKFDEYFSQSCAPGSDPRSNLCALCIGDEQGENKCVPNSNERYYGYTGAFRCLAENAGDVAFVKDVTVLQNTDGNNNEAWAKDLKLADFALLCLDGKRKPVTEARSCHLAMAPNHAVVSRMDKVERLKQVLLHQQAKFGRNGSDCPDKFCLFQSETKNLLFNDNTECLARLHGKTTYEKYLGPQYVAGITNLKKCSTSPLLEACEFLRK
The test system of assay [4] is Sambucus racemosa subsp. sieboldiana. Briefly: Binding affinity to biotin-labeled Sambucus sieboldiana agglutinin in pH 7.4 Tris buffer by fluorescence microarray method.
Another assay relates to Triticum aestivum. Kind of assay: Binding affinity to biotin-labeled Wheat germ agglutinin in pH 7.4 Tris buffer by fluorescence microarray method.
The species named for assay [5] is Homo sapiens. Kind of assay: Binding affinity to biotin-labeled human recombinant laminin-2 at 10 ug/ml in 5.6 MES buffer by fluorescence microarray method.
The nature of assay [6]: Binding affinity to biotin-labeled Agaricus bisporus agglutinin in pH 7.4 Tris buffer by fluorescence microarray method.
Assay [7] has as its target Lactotransferrin (Homo sapiens) (UniProt P02788). Briefly: Binding affinity to biotin-labeled lactoferrin (unknown origin) at 10 ug/ml in pH 5.6 MES buffer by fluorescence microarray method.
The test system of the next assay is Erythrina crista-galli. Kind of assay: Binding affinity to biotin-labeled Erythrina crista-galli agglutinin in pH 7.4 Tris buffer by fluorescence microarray method.
The species entered for assay [8] is Homo sapiens. Kind of assay: Binding affinity to biotin-labeled human recombinant laminin-2 at 10 ug/ml in pH 7.4 Tris buffer by fluorescence microarray method.
Another assay concerns Arachis hypogaea. Briefly: Binding affinity to biotin-labeled Arachis hypogaea agglutinin in pH 7.4 Tris buffer by fluorescence microarray method.

Calls of active or inactive are those of the source. No cut-off for these calls is given here. Peptide text beside a SMILES is read from it. * marks the point of attachment. X1 = CC(=O)N[C@H]1[C@H](O[C@H]2[C@@H](O)[C@H](O)[C@@H](CO)O[C@@H]2*)O[C@H](CO)[C@@H](O[C@@H]2O[C@H](CO)[C@H](O)[C@H](O[C@]3(C(=O)O)C[C@H](O)[C@@H](NC(C)=O)[C@H]([C@H](O)[C@H](O)CO)O3)[C@H]2O)[C@@H]1O; X2 = CC(=O)N[C@H]1[C@H](O[C@H]2[C@@H](O)[C@H](O)[C@@H](CO)O[C@@H]2*)O[C@H](CO)[C@@H](O[C@@H]2O[C@H](CO)[C@H](O)[C@H](O)[C@H]2O)[C@@H]1O; GlcNAc(β1-2)αMan = CC(=O)N[C@H]1[C@H](O[C@H]2[C@@H](O)[C@H](O)[C@@H](CO)O[C@@H]2*)O[C@H](CO)[C@@H](O)[C@@H]1O; αMan = OC[C@H]1O[C@H](*)[C@@H](O)[C@@H](O)[C@@H]1O; Hexanoyl(5-oxo) = CC(=O)CCCC(=O)*

As to `CC[C@H](C)[C@H](NC(=O)[C@H](C)NC(=O)CNC(=O)[C@H](CCCNC(=N)N)NC(=O)[C@@H](NC(=O)CCCC(C)=O)[C@@H](C)O)C(=O)N[C@H](C(=O)N[C@@H](CCC(N)=O)C(=O)N[C@H](C(=O)N1CCC[C@H]1C(=O)N[C@H](C(=O)N[C@@H](CC(C)C)C(=O)NCC(=O)N1CCC[C@H]1C(=O)N[C@H](C(=O)N[C@@H](CCC(N)=O)C(=O)N1CCC[C@H]1C(=O)N[C@H](C(=O)N[C@@H](CCCNC(=N)N)C(=O)N[C@H](C(N)=O)C(C)C)[C@@H](C)O[C@H]1O[C@H](CO)[C@@H](O)[C@H](O)[C@@H]1O[C@@H]1O[C@H](CO)[C@@H](O)[C@H](O)[C@H]1NC(C)=O)[C@@H](C)CC)[C@@H](C)O[C@H]1O[C@H](CO)[C@@H](O)[C@H](O)[C@@H]1O[C@@H]1O[C@H](CO)[C@@H](O[C@@H]2O[C@H](CO)[C@H](O)[C@H](O[C@]3(C(=O)O)C[C@H](O)[C@@H](NC(C)=O)[C@H]([C@H](O)[C@H](O)CO)O3)[C@H]2O)[C@H](O)[C@H]1NC(C)=O)[C@@H](C)O)[C@@H](C)CC` ({Hexanoyl(5-oxo)}-TRGAIIQTPT(X1)LGPIQPT(GlcNAc(β1-2)αMan)RV-NH2), the result (in the assay on Datura stramonium; in the assay on Maackia amurensis; in assay [3]; in the assay listed under Homo sapiens [8]) was inactive. Besides, the outcome (in the assay on Canavalia ensiformis; in assay [1]; in assay [2]; in [4]; with Triticum aestivum; in the assay filed under Homo sapiens [5]) was Active. Further, the result (in assay [6]; in assay [7]; in the assay on Erythrina crista-galli; in the assay on Arachis hypogaea) was Active.
Take `CC[C@H](C)[C@H](NC(=O)[C@H](C)NC(=O)CNC(=O)[C@H](CCCNC(=N)N)NC(=O)[C@@H](NC(=O)CCCC(C)=O)[C@@H](C)O)C(=O)N[C@H](C(=O)N[C@@H](CCC(N)=O)C(=O)N[C@H](C(=O)N1CCC[C@H]1C(=O)N[C@H](C(=O)N[C@@H](CC(C)C)C(=O)NCC(=O)N1CCC[C@H]1C(=O)N[C@H](C(=O)N[C@@H](CCC(N)=O)C(=O)N1CCC[C@H]1C(=O)N[C@H](C(=O)N[C@@H](CCCNC(=N)N)C(=O)N[C@H](C(N)=O)C(C)C)[C@@H](C)O[C@H]1O[C@H](CO)[C@@H](O)[C@H](O)[C@@H]1O[C@@H]1O[C@H](CO)[C@@H](O[C@@H]2O[C@H](CO)[C@H](O)[C@H](O[C@]3(C(=O)O)C[C@H](O)[C@@H](NC(C)=O)[C@H]([C@H](O)[C@H](O)CO)O3)[C@H]2O)[C@H](O)[C@H]1NC(C)=O)[C@@H](C)CC)[C@@H](C)O[C@H]1O[C@H](CO)[C@@H](O)[C@H](O)[C@@H]1O[C@@H]1O[C@H](CO)[C@@H](O[C@@H]2O[C@H](CO)[C@H](O)[C@H](O[C@]3(C(=O)O)C[C@H](O)[C@@H](NC(C)=O)[C@H]([C@H](O)[C@H](O)CO)O3)[C@H]2O)[C@H](O)[C@H]1NC(C)=O)[C@@H](C)O)[C@@H](C)CC` ({Hexanoyl(5-oxo)}-TRGAIIQTPT(X1)LGPIQPT(X1)RV-NH2): the outcome (with Datura stramonium; in the assay on Maackia amurensis; in [3]; in the assay listed under Homo sapiens [8]) was inactive. The result (in the assay with Canavalia ensiformis; in [1]; in [2]; in [4]; with Triticum aestivum; in the assay listed under Homo sapiens [5]) was Active. The result (in assay [6]; in assay [7]; with Erythrina crista-galli; in the assay with Arachis hypogaea) was Active.
`CC[C@H](C)[C@H](NC(=O)[C@H](C)NC(=O)CNC(=O)[C@H](CCCNC(=N)N)NC(=O)[C@@H](NC(=O)CCCC(C)=O)[C@@H](C)O)C(=O)N[C@H](C(=O)N[C@@H](CCC(N)=O)C(=O)N[C@H](C(=O)N1CCC[C@H]1C(=O)N[C@H](C(=O)N[C@@H](CC(C)C)C(=O)NCC(=O)N1CCC[C@H]1C(=O)N[C@H](C(=O)N[C@@H](CCC(N)=O)C(=O)N1CCC[C@H]1C(=O)N[C@H](C(=O)N[C@@H](CCCNC(=N)N)C(=O)N[C@H](C(N)=O)C(C)C)[C@@H](C)O[C@H]1O[C@H](CO)[C@@H](O)[C@H](O)[C@@H]1O[C@@H]1O[C@H](CO)[C@@H](O[C@@H]2O[C@H](CO)[C@H](O)[C@H](O)[C@H]2O)[C@H](O)[C@H]1NC(C)=O)[C@@H](C)CC)[C@@H](C)O[C@H]1O[C@H](CO)[C@@H](O)[C@H](O)[C@@H]1O[C@@H]1O[C@H](CO)[C@@H](O[C@@H]2O[C@H](CO)[C@H](O)[C@H](O[C@]3(C(=O)O)C[C@H](O)[C@@H](NC(C)=O)[C@H]([C@H](O)[C@H](O)CO)O3)[C@H]2O)[C@H](O)[C@H]1NC(C)=O)[C@@H](C)O)[C@@H](C)CC` ({Hexanoyl(5-oxo)}-TRGAIIQTPT(X1)LGPIQPT(X2)RV-NH2): the result (in the assay on Datura stramonium; in the assay on Maackia amurensis; in [3]; in the assay filed under Homo sapiens [8]) was inactive. Further, the outcome (in the assay on Canavalia ensiformis; in assay [1]; in [2]; in [4]; with Triticum aestivum; in the assay filed under Homo sapiens [5]) was Active. Moreover, the result (in assay [6]; in assay [7]; in the assay on Erythrina crista-galli; in the assay on Arachis hypogaea) was Active.
`CC[C@H](C)[C@H](NC(=O)[C@H](C)NC(=O)CNC(=O)[C@H](CCCNC(=N)N)NC(=O)[C@@H](NC(=O)CCCC(C)=O)[C@@H](C)O)C(=O)N[C@H](C(=O)N[C@@H](CCC(N)=O)C(=O)N[C@H](C(=O)N1CCC[C@H]1C(=O)N[C@H](C(=O)N[C@@H](CC(C)C)C(=O)NCC(=O)N1CCC[C@H]1C(=O)N[C@H](C(=O)N[C@@H](CCC(N)=O)C(=O)N1CCC[C@H]1C(=O)N[C@H](C(=O)N[C@@H](CCCNC(=N)N)C(=O)N[C@H](C(N)=O)C(C)C)[C@@H](C)O[C@H]1O[C@H](CO)[C@@H](O)[C@H](O)[C@@H]1O)[C@@H](C)CC)[C@@H](C)O[C@H]1O[C@H](CO)[C@@H](O)[C@H](O)[C@@H]1O[C@@H]1O[C@H](CO)[C@@H](O[C@@H]2O[C@H](CO)[C@H](O)[C@H](O[C@]3(C(=O)O)C[C@H](O)[C@@H](NC(C)=O)[C@H]([C@H](O)[C@H](O)CO)O3)[C@H]2O)[C@H](O)[C@H]1NC(C)=O)[C@@H](C)O)[C@@H](C)CC` ({Hexanoyl(5-oxo)}-TRGAIIQTPT(X1)LGPIQPT(αMan)RV-NH2): the result (in the assay on Datura stramonium; with Maackia amurensis; in assay [3]; in the assay filed under Homo sapiens [8]) was inactive. Further, the result (with Canavalia ensiformis; in assay [1]; in assay [2]; in [4]; in the assay on Triticum aestivum; in the assay filed under Homo sapiens [5]) was Active. Further, the outcome (in assay [6]; in [7]; in the assay on Erythrina crista-galli; in the assay with Arachis hypogaea) was Active.
`CC[C@H](C)[C@H](NC(=O)[C@H](C)NC(=O)CNC(=O)[C@H](CCCNC(=N)N)NC(=O)[C@@H](NC(=O)CCCC(C)=O)[C@@H](C)O)C(=O)N[C@H](C(=O)N[C@@H](CCC(N)=O)C(=O)N[C@H](C(=O)N1CCC[C@H]1C(=O)N[C@H](C(=O)N[C@@H](CC(C)C)C(=O)NCC(=O)N1CCC[C@H]1C(=O)N[C@H](C(=O)N[C@@H](CCC(N)=O)C(=O)N1CCC[C@H]1C(=O)N[C@H](C(=O)N[C@@H](CCCNC(=N)N)C(=O)N[C@H](C(N)=O)C(C)C)[C@@H](C)O)[C@@H](C)CC)[C@@H](C)O[C@H]1O[C@H](CO)[C@@H](O)[C@H](O)[C@@H]1O[C@@H]1O[C@H](CO)[C@@H](O[C@@H]2O[C@H](CO)[C@H](O)[C@H](O[C@]3(C(=O)O)C[C@H](O)[C@@H](NC(C)=O)[C@H]([C@H](O)[C@H](O)CO)O3)[C@H]2O)[C@H](O)[C@H]1NC(C)=O)[C@@H](C)O)[C@@H](C)CC` ({Hexanoyl(5-oxo)}-TRGAIIQTPT(X1)LGPIQPTRV-NH2): the result (in the assay with Datura stramonium; in the assay with Maackia amurensis; in assay [3]; in the assay filed under Homo sapiens [8]) was inactive. Moreover, the result (with Canavalia ensiformis; in assay [1]; in assay [2]; in assay [4]; in the assay with Triticum aestivum; in the assay listed under Homo sapiens [5]) was Active. For the same compound, the result (in [6]; in assay [7]; in the assay with Erythrina crista-galli; in the assay with Arachis hypogaea) was Active.
